Reference: patent publication US20180092908A1, “SMALL MOLECULE OXIDIZERS OF PDI AND THEIR USE” (THE TRUSTEES OF COLUMBIA UNIVERSITY IN THE CITY OF NEW YORK, priority 2015, published 2018)
Like-named read-outs stand apart in the source and are kept apart here.

Legend:
[1] = target: T1, human catalytic PDI A1 a domain (PDIa) (Homo sapiens, UniProt P07237); assay: Isothermal titration calorimetry (ITC) binding to PDIa
T1 construct: made in house; host or cells: Escherichia coli BL21-Gold (DE3)
Procedure: All ITC experiments were carried out at 25° C. on MicoCal Auto-ITC200 system (GE Healthcare). Reduced PDIa was dialyzed into ITC buffer (20 mM sodium phosphate buffer pH 7.8) and loaded into a sample cell at 40 μM concentration. The compound solution was loaded into a syringe at 400 μM in the same ITC buffer with a final DMSO concentration at 0.4% (v/v). ITC titration experiments were carried out at 25° C. with 19 injections, 2 μl per injection, and 180 seconds between each injection. The reference cell power was set to 5 μcal/sec. A control experiment was performed for each compound, where each compound was titrated into buffer to account for heat released due to dilution. This background was subtracted from test data before a final dissociation constant was obtained. Data were analyzed using a one-site binding model in Origin 7.1 software. […] Gibbs free energy, ΔG, was calculated from equation ΔG=ΔH−TΔS. All other parameters, Ka, n, ΔH, ΔS, were determined directly from the titration data.
For ITC experiments with 16F16 pre-treatment, 40 μM PDIa (after dialysis into ITC buffer) was treated with 200 μM 16F16 for 12-15 hours at 4° C. Next day the whole solution was loaded into the sample cell. LOC14 at 400 μM in ITC buffer was loaded into syringe and titrated into PDIa+16F16 loaded cell. For control experiments, ITC buffer with 200 μM 16F16 was used in the cell, while 400 μM LOC14 in ITC buffer was used in the syringe.
The binding mode of LOC14 to PDIa was next investigated using isothermal titration calorimetry (ITC). ITC measures the heat released or absorbed during a biomolecular interaction. It is a direct analytical method for determining the binding and thermodynamic parameters, such as reaction stoichiometry (n), binding constants (Ka and Kd), enthalpy (ΔH), entropy (ΔS), and free energy (ΔG) of an interaction.

[2] = target: T2, recombinant catalytic a domain of human PDI A1 (PDIa) (Homo sapiens, UniProt P07237); assay: Insulin aggregation assay (PDIa reductase activity); format: biochemical; details: Table 5
T2 construct: made in house; host or cells: Escherichia coli BL21-Gold (DE3)
T2 sequence (P07237 with tags, fused parts or gaps): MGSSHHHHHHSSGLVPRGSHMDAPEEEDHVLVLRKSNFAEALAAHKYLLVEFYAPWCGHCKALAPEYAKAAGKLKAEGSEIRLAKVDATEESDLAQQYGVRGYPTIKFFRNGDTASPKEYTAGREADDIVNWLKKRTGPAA
Description: In this insulin aggregation assay (Xu et al., 2012; Jasuja et al., 2012; Khan et al., 2011; Smith et al., 2004), PDIa reduced the two disulfide bonds between the α- and β-chains of insulin, causing the β-chain to aggregate and precipitate, resulting in an increase in absorbance at 650 nm.
To investigate the mode of binding further and to determine whether the binding was reversible or irreversible, the recovery of enzymatic activity of PDIa after dilution of pre-formed concentrated PDIa-LOC14 complexes was analyzed. LOC14 (750 μM) was incubated with a concentrated solution of PDIa (500 μM). The mixture was then diluted 100-fold and PDI's enzymatic activity was measured in the insulin reduction assay. As a control, the same procedure was also performed on the sample containing an irreversible inhibitor, 16F16 (16F16 at 750 μM and PDIa at 500 μM). […] This illustrated that unlike 16F16, LOC14 binding to PDIa is reversible.

PC12 mHTT^Q103 cells = assay: Rescue of PC12 cells from mHTT^Q103 induced cell death (Alamar blue viability); format: cell-based; details: Table 5; for EC50: Rattus norvegicus, PC-12, read-out: Cell Viability Assay EC50
Description: PC12 mHTT^Q103 cells were a gift from Erik S. Schweitzer (UCLA School of Medicine, Los Angeles, Calif.). These cells are stably transfected with the first exon of human HTT gene containing the pathogenic 103 CAG/CAA repeat expansion, under the control of the ecdysteroid promoter (Aiken et al., 2004). The plasmid also contains a Bombyx mori ecdysone receptor gene fused at N-terminal with VP16 transactivation domain (Suhr et al., 1998; Vilaboa et al., 2011). Addition of the ecdysone analog, tebufenozide, to the cell culture medium is used to initiate the transcription of mutant HTT (Aiken et al., 2004).
PC12 mHTT^Q103 cells were cultured in DMEM containing 4.5 g/I glucose, 25 mM HEPES, sodium pyruvate, and no L-glutamine (Mediatech, cat. no. 15-018-CV), supplemented with 10% (v/v) Cosmic Calf serum, 2 mM L-glutamine, 100 units/mL of penicillin-streptomycin, and 0.5 mg/ml active geneticin. Cells were grown at 37° C., 9.5% CO2, and the medium was replaced with fresh medium every 2-3 days. To induce mHTT^Q103 expression for experiments, tebufenozide, a gift from Lynne Moore and Fred H. Gage (The Salk Institute for Biological Studies, La Jolla, Calif.), was added to the medium at 200 nM final concentration from 1 mM stock in 85% ethanol.
LOC mother plates with compounds at 4 mg/ml were thawed and spun down (1000 rpm, 20° C., 1 min) prior to use. Biomek FX (Beckman Coulter) robotic liquid dispenser was used to handle all liquid transferring and mixing. […] Two fold serial dilution was performed across five daughter plates by transferring 50 μl of compounds (at […]) from the D1 plate into 50 μl of PC12 medium in daughter plate D2, mixing, and then repeating the process for the remaining three plates. Daughter plate D1 with compounds at […], daughter plate D3 with compounds at 20 μl/ml and daughter plate D5 with compounds at 5 μl/ml were then used for the screen. Assay plates were set up by seeding tebufenozide-induced PC12 mHTT^Q103 cells into 384-well black, clear-bottom plates (Corning Inc. cat. no. 3712) at a density of 7,500 cells per well in 57 μl PC12 medium without geneticin. Three microliters of compound from the daughter plates (D1, D3, and D5) were added to the assay plates for a final compound concentration of 4 μl/ml, 1 μl/ml, and 0.25 μl/ml. Four wells containing uninduced PC12 mHTT^Q103 cells and four wells containing medium only, were also included on each plate as controls. The assay plates were incubated at 37° C., 9.5% CO2 for 48 hours. Twenty microliters of 40% Alamar blue (Life Technologies cat. no. DAL1100) solution in PC12 medium was added to each well (1:10 final dilution) and the plates were incubated for an additional 12-24 hours at 37° C., 9.5% CO2. Alamar blue fluorescence was read on a fluorescence plate reader (PerkinElmer Victor3) with 530 nm excitation filter and 590 nm emission filter. Each compound concentration was tested in triplicate.
The follow-up testing of primary screen hits was performed in a similar way. Fresh powder stocks of primary hits were re-ordered from vendors, dissolved in DMSO and tested in a two-fold serial dilution across 10 wells in both tebufenozide-induced and uninduced PC12 mHTT^Q103 cells. Dose-response curves were plotted as mean±SD and fit to either four-parameter sigmoidal (for uninduced cells) or bell-shaped (induced) function using Prism (GraphPad Software).
A cascade of two assays was used, involving both a phenotypic high-throughput screening (HTS) assay and an in vitro PDI reductase assay, to identify neuroprotective PDI-inhibiting compounds. […] Alamar blue was used as a fluorescent readout for viability after 48 hours of compound treatment and mHTT^Q103 induction. […] All the candidate hit compounds were re-tested in a two-fold dilution series.

[3] = PDIa, Table 5, read-out: ITC Assay KD

T1 sequence (P07237 with tags, fused parts or gaps): as above

Row | SMILES | Insulin Assay (either active or inactive) [2] | EC50 (PC12 mHTT^Q103 cells) [nM] | ITC Assay KD ([1]; PDIa, Table 5) | also measured
1 | O=c1c2ccccc2sn1CN1CCOCC1 [LC-18] | Active | 547 | – | Kd [1, 3]: 253 nM
2 | O=c1c2ccccc2sn1Cc1ccc(Br)cc1 [LC-26] | not active | 778 | KD = N/A irreversible or not active | –
3 | O=C(C1CC1)N1CCN(Cn2sc3c(Cl)cccc3c2=O)CC1 [LC-39] | not active | – | KD = N/A irreversible or not active | –
4 | O=C(C1CC1)N1CCN(Cn2sc3c(C(F)(F)F)cccc3c2=O)CC1 [LC-42] | not active | – | KD = N/A irreversible or not active | –
5 | NC(=O)c1cccc(C(F)(F)F)c1SSc1c(C(N)=O)cccc1C(F)(F)F [LC-45] | not active | – | KD = N/A irreversible or not active | –
6 | Cn1sccc1=O [LC-35] | Active | – | KD = N/A irreversible or not active | Cell Viability Assay EC50 (PC12 mHTT^Q103 cells): Not Active
7 | O=c1[nH]sc2c(Cl)cccc12 [LC-38] | not active | – | KD = N/A irreversible or not active | –
8 | O=c1ssc2ccccc12 [LC-48] | not active | – | – | –
9 | C[C@@H](NC(=O)c1ccccc1S)c1ccccc1 [LC-28] | not active | 808 | KD = N/A irreversible or not active | –
10 | O=C(C1CC1)N1CCN(Cn2sc3c(F)cccc3c2=O)CC1 [LC-43] | Active | 7410 | KD = N/A irreversible or not active | –
11 | O=c1c2cccnc2sn1CCC1CCNCC1 [LC-56] | Active | – | – | –
12 | O=c1c2cccnc2sn1CCN1CCCCC1 [LC-54] | Active | – | – | –
13 | O=c1c2ccccc2sn1CN1CCN(Cc2ccccc2)CC1 [LC-22] | Active | 310 | – | Kd [1, 3]: 173 nM
14 | C[C@H](c1ccccc1)n1sc2ccccc2c1=O [LC-29] | Active | 519 | – | Kd [1, 3]: 658 nM
15 | O=C(C1CC1)N1CCN(Cn2oc3ccccc3c2=O)CC1 [Oxy-LOC14, 2-((4-(cyclopropanecarbonyl)piperazin-1-yl)methyl)benzo[d]isoxazol-3(2H)-one] | – | – | – | loss in binding affinity compared to LOC14 ([1]; ITC, PDIa): 35 fold; Kd ([1]; reduced PDIa 40 μM, compound 400 μM, 25° C., read-out: dissociation constant (Kd)): 2430 nM
16 | O=c1c2cccnc2sn1CCN1CCOCC1 [LC-55] | Active | – | – | –
17 | O=c1c2ccccc2sn1-c1cccc(F)c1 [LC-31] | not active | 1760 | KD = N/A irreversible or not | –
